This note sets out measurements from patent publication US20190085024A1, “Alpha-Ketoamide Inhibitors Of Cysteine Proteases” (Phelix Therapeutics, priority 2017, published 2019).

For one experiment, the target named is Cathepsin L (Homo sapiens, UniProt P07711). Briefly: Cathepsin L enzyme assay. The class given is biochemical. The following applies: Ki by Morrison equation; pH 5.5, substrate Z-Phe-Arg-Amc; read-out: Cat L. From the text:
Two wells contained DMSO only for controls.
Velocity was converted to μM/sec.

The target in a further experiment is Calpain. The experiment can be described thus: Calpain enzyme assay. The following applies: Ki by Morrison equation; pH 7.5, 5 mM CaCl2. The class given is biochemical.

Cathepsin L, sequence (P07711 114-333, species assumed): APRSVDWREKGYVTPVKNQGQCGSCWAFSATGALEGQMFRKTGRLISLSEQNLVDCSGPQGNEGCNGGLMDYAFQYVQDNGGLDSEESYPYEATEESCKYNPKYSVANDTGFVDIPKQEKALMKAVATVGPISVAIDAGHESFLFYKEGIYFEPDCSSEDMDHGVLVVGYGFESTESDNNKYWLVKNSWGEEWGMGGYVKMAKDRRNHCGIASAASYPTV

Turning to `CCC(C)C(NC(=O)C(CC(C)C)NC(=O)Cc1ccccn1)C(=O)C(=O)NCC(=O)NC(Cc1ccc2ccccc2c1)C(N)=O` (stereo not shown) [PHELIX324, N-(2-((1-amino-3-(naphthalen-2-yl)-1-oxopropan-2-yl)amino)-2-oxoethyl)-4-methyl-3-(4-methyl-2-(2-(pyridin-2-yl)acetamido)pentanamido)-2-oxohexanamide], the Ki turned out to be 1.32 nM at Cathepsin L and 8.15 nM on Calpain.
The like results for `CCC(C)C(NC(=O)OCc1ccccc1)C(=O)C(=O)NCC(=O)NC(Cc1ccc2ccccc2c1)C(N)=O` (stereo not shown) [PHELIX325, benzyl (1-((2-((1-amino-3-(naphthalen-2-yl)-1-oxopropan-2-yl)amino)-2-oxoethyl)amino)-4-methyl-1,2-dioxohexan-3-yl)carbamate] were, in that order, 239 nM and 1210 nM.
For `CCC(C)C(NC(=O)C(CC(C)C)NC(=O)OCc1ccccc1)C(=O)C(=O)NC(CC(N)=O)Cc1ccccc1` (stereo not shown) [PHELIX326, benzyl (1-((1-((4-amino-4-oxo-1-phenylbutan-2-yl)amino)-4-methyl-1,2-dioxohexan-3-yl)amino)-4-methyl-1-oxopentan-2-yl)carbamate], in that order: 60.1 nM and 702 nM.
In the case of `CCC(C)C(NC(=O)C(CC(C)C)NC(=O)OCc1ccccc1)C(=O)C(=O)NCC(=O)NC(Cc1cc2ccccc2[nH]1)C(N)=O` (stereo not shown) [PHELIX327, benzyl (1-((1-((2-((1-amino-3-(1H-indol-2-yl)-1-oxopropan-2-yl)amino)-2-oxoethyl)amino)-4-methyl-1,2-dioxohexan-3-yl)amino)-4-methyl-1-oxopentan-2-yl)carbamate], the Ki on Cathepsin L is 9.33 nM; at Calpain it was 9.98 nM.
Consider `CCC(C)C(NC(=O)C(CC(C)C)NC(=O)OCc1ccccc1)C(=O)C(=O)NC(Cc1cnc[nH]1)C(=O)NC(Cc1ccc2ccccc2c1)C(N)=O` (stereo not shown) [PHELIX328, benzyl (1-((1-((1-((1-amino-3-(naphthalen-2-yl)-1-oxopropan-2-yl)amino)-3-(1H-imidazol-5-yl)-1-oxopropan-2-yl)amino)-4-methyl-1,2-dioxohexan-3-yl)amino)-4-methyl-1-oxopentan-2-yl)carbamate], for which the Ki came out at 2.52 nM on Cathepsin L and 35.1 nM on Calpain.
For the compound `CCC(C)C(NC(=O)C(CC(C)C)NC(=O)OCc1ccccc1)C(=O)C(=O)NC(CCCNC(=N)N)C(=O)NC(Cc1ccc2ccccc2c1)C(N)=O` (stereo not shown) [PHELIX329, benzyl (1-((1-((1-((1-amino-3-(naphthalen-2-yl)-1-oxopropan-2-yl)amino)-5-guanidino-1-oxopentan-2-yl)amino)-4-methyl-1,2-dioxohexan-3-yl)amino)-4-methyl-1-oxopentan-2-yl)carbamate], the figures for the Ki on Cathepsin L and at Calpain were 2.67 nM and 110 nM, respectively.
As to `CCC(C)C(NC(=O)C(CC(C)C)NC(=O)OCc1ccccc1)C(=O)C(=O)NC(CCCNC(=N)N)C(=O)NC(Cc1ccc2ccccc2c1)C(N)=O` (stereo not shown) [PHELIX330, benzyl (1-((1-((1-((1-amino-3-(naphthalen-2-yl)-1-oxopropan-2-yl)amino)-5-guanidino-1-oxopentan-2-yl)amino)-4-methyl-1,2-dioxohexan-3-yl)amino)-4-methyl-1-oxopentan-2-yl)carbamate], the Ki turned out to be 2.91 nM on Cathepsin L and 21.4 nM on Calpain.
For `CCC(C)C(NC(=O)C(CC(C)(C)C)NC(=O)Cc1ccccc1)C(=O)C(=O)NCC(=O)NC(Cc1ccc2ccccc2c1)C(N)=O` (stereo not shown) [PHELIX331, N-(2-((1-amino-3-(naphthalen-2-yl)-1-oxopropan-2-yl)amino)-2-oxoethyl)-3-(4,4-dimethyl-2-(2-phenylacetamido)pentanamido)-4-methyl-2-oxohexanamide], in that order: 1.67 nM and 9.26 nM.
As to `CCC(C)C(NC(=O)C(CC1CC1)NC(=O)Cc1ccccc1)C(=O)C(=O)NCC(=O)NC(Cc1ccc2ccccc2c1)C(N)=O` (stereo not shown) [PHELIX332, N-(2-((1-amino-3-(naphthalen-2-yl)-1-oxopropan-2-yl)amino)-2-oxoethyl)-3-(3-cyclopropyl-2-(2-phenylacetamido)propanamido)-4-methyl-2-oxohexanamide], the Ki at Cathepsin L was 1.15 nM; on Calpain, 2.37 nM.
Regarding `CCC(C)C(NC(=O)C(CC(C)C)NC(=O)Cc1ccncc1)C(=O)C(=O)NCC(=O)NC(Cc1ccc2ccccc2c1)C(N)=O` (stereo not shown) [PHELIX333, N-(2-((1-amino-3-(naphthalen-2-yl)-1-oxopropan-2-yl)amino)-2-oxoethyl)-4-methyl-3-(4-methyl-2-(2-(pyridin-4-yl)acetamido)pentanamido)-2-oxohexanamide], the Ki at Cathepsin L stood at 0.59 nM; on Calpain it was 0.98 nM.
For the compound `CCC(C)C(NC(=O)C(CC(C)C)NC(=O)NCc1ccccc1)C(=O)C(=O)NCC(=O)NC(Cc1ccc2ccccc2c1)C(N)=O` (stereo not shown) [PHELIX334, N-(2-((1-amino-3-(naphthalen-2-yl)-1-oxopropan-2-yl)amino)-2-oxoethyl)-3-(2-(3-benzylureido)-4-methylpentamido)-4-methyl-2-oxohexanamide], the Ki came to 0.43 nM at Cathepsin L and 0.67 nM on Calpain.
The like results for `CCC(C)C(NC(=O)C(CC(C)C)NC(=O)Nc1ccccc1)C(=O)C(=O)NCC(=O)NC(Cc1ccc2ccccc2c1)C(N)=O` (stereo not shown) [PHELIX335, N-(2-((1-amino-3-(naphthalen-2-yl)-1-oxopropan-2-yl)amino)-2-oxoethyl)-4-methyl-3-(4-methyl-2-(3-phenylureido)pentanamido)-2-oxohexanamide] were, in that order, below 0.15 nM and 1.45 nM.
Turning to `CCC(C)C(NC(=O)C(CC(C)C)NC(=O)OCc1ccccc1)C(=O)C(=O)NC(CC#N)C(=O)NC(Cc1ccc2ccccc2c1)C(N)=O` (stereo not shown) [PHELIX336, benzyl (1-((1-((1-((1-amino-3-(naphthalen-2-yl)-1-oxopropan-2-yl)amino)-3-cyano-1-oxopropan-2-yl)amino)-4-methyl-1,2-dioxohexan-3-yl)amino)-4-methyl-1-oxopentan-2-yl)carbamate], the values for the Ki on Cathepsin L and at Calpain were 4.04 nM and 33.6 nM, respectively.
As for `CC[C@H](C)C(NC(=O)[C@H](CC#N)NC(=O)Cc1ccccc1)C(=O)C(=O)NCC(=O)N[C@@H](Cc1ccc2ccccc2c1)C(N)=O` (stereo partly shown) [PHELIX337, N-(2-((1-amino-3-(naphthalen-2-yl)-1-oxopropan-2-yl)amino)-2-oxoethyl)-3-(3-cyano-2-(2-phenylacetamido)propanamido)-4-methyl-2-oxohexanamide], the Ki turned out to be 8.48 nM at Cathepsin L and 224 nM at Calpain.
Take `CCC(C)C(NC(=O)C(CC(C)C)NC(=O)OCc1ccccc1)C(=O)C(=O)NC(CCCNC(N)=O)C(N)=O` (stereo not shown) [PHELIX340, benzyl (1-((1-((1-amino-1-oxo-5-ureidopentan-2-yl)amino)-4-methyl-1,2-dioxohexan-3-yl)amino)-4-methyl-1-oxopentan-2-yl)carbamate]: the Ki on Cathepsin L is 3.88 nM; on Calpain it was 17.1 nM.
Take `CCC(C)C(NC(=O)C(CC(C)C)NC(=O)OCc1ccccc1)C(=O)C(=O)NC(CCCNC(N)=O)C(N)=O` (stereo not shown) [PHELIX341, benzyl (1-((1-((1-amino-1-oxo-5-ureidopentan-2-yl)amino)-4-methyl-1,2-dioxohexan-3-yl)amino)-4-methyl-1-oxopentan-2-yl)carbamate]: the results for the Ki at Cathepsin L and at Calpain were 27.9 nM and 23.4 nM, respectively.
As for `CCC(C)C(NC(=O)C(CC(C)C)NC(=O)OCc1ccccc1)C(=O)C(=O)NC(Cc1ccncc1)C(N)=O` (stereo not shown) [PHELIX342, benzyl (1-((1-((1-amino-1-oxo-3-(pyridin-4-yl)propan-2-yl)amino)-4-methyl-1,2-dioxohexan-3-yl)amino)-4-methyl-1-oxopentan-2-yl)carbamate], the results for the Ki on Cathepsin L and at Calpain were 31.3 nM and 20.2 nM, respectively.
As for `CCC(C)C(NC(=O)C(CC(C)C)NC(=O)OCc1ccccc1)C(=O)C(=O)NC(Cc1cc2ccccc2[nH]1)C(N)=O` (stereo not shown) [PHELIX343, benzyl (1-((1-((1-amino-3-(1H-indol-2-yl)-1-oxopropan-2-yl)amino)-4-methyl-1,2-dioxohexan-3-yl)amino)-4-methyl-1-oxopentan-2-yl)carbamate], the Ki stood at 3.53 nM on Cathepsin L and 34.1 nM on Calpain.
In the case of `CC[C@H](C)C(NC(=O)[C@H](CC(C)C)NC(=O)OCc1ccccc1)C(=O)C(=O)N[C@@H](Cc1cccnc1)C(N)=O` (stereo partly shown) [PHELIX344], the Ki on Cathepsin L came to 20.6 nM; at Calpain, 26.7 nM.
As to `CCC(C)C(NC(=O)C(CC(C)C)NC(=O)C(Cc1ccccc1)NC(C)=O)C(=O)C(=O)NC(CCCNC(=N)N)C(N)=O` (stereo not shown) [PHELIX345], the values for the Ki on Cathepsin L and at Calpain were 11.3 nM and 37.1 nM, respectively.
In the case of `CCC(C)C(NC(=O)C(CC(C)C)NC(=O)C(Cc1ccccc1)NC(=O)Cc1ccncc1)C(=O)C(=O)NC(CCCNC(=N)N)C(N)=O` (stereo not shown) [PHELIX346, N-(1-amino-5-guanidino-1-oxopentan-2-yl)-4-methyl-3-(4-methyl-2-(3-phenyl-2-(2-(pyridin-4-yl)acetamido)propanamido)pentanamido)-2-oxohexanamide], the results for the Ki on Cathepsin L and at Calpain were 3.28 nM and 1.71 nM, respectively.
Turning to `CCC(C)C(NC(=O)C(CC(C)C)NC(=O)OCc1ccccc1)C(=O)C(=O)NCC(=O)NC(Cc1cccc(F)c1)C(N)=O` (stereo not shown) [PHELIX348, benzyl (1-((1-((2-((1-amino-3-(3-fluorophenyl)-1-oxopropan-2-yl)amino)-2-oxoethyl)amino)-4-methyl-1,2-dioxohexan-3-yl)amino)-4-methyl-1-oxopentan-2-yl)carbamate], the Ki stood at 2.76 nM on Cathepsin L and 1.68 nM at Calpain.
In the case of `CCC(C)C(NC(=O)C(CC(C)C)NC(=O)OCc1ccccc1)C(=O)C(=O)NCC(=O)NC(Cc1ccc(F)cc1)C(N)=O` (stereo not shown) [PHELIX349, benzyl (1-((1-((2-((1-amino-3-(4-fluorophenyl)-1-oxopropan-2-yl)amino)-2-oxoethyl)amino)-4-methyl-1,2-dioxohexan-3-yl)amino)-4-methyl-1-oxopentan-2-yl)carbamate], the Ki at Cathepsin L is 2.11 nM; on Calpain, 2.27 nM.
